From US4550186A, “Binuclear copper (II) carboxylates formed from amine-carboxyboranes” (Duke University, priority 1983, dated 1985)

Assays:
[1] = system: Holtzman male rats; assay: Plasma lipoprotein fractions; assay type: in vivo, rat; conditions: 14 days 10 mg/kg/day orally
Description: […] On day 14, blood was collected from the abdominal aorta. Serum was separated from whole blood by centrifugation at 3500 rpm. Aliquots (3 ml) were separated by density gradient ultracentrifugation according to the method of Hatch and Lees [Adv. Lipid Res., 6, 33 (1968)] and Havel et al [J. Clin. Invest., 34, 1395 (1955)] into the chylomicrons,very low density lipoproteins, high density lipoproteins and low density lipoproteins. Each of the fractions was analyzed for cholesterol, triglyceride, neutral lipids, phospholipids and protein levels.
Data are expressed in the Table 2-7 as percent of control ± the standard deviation. The probable significant level (P) between each test group and the control group was determined by the Student's "t" test.

[2] = Appetite / food intake; conditions: in vivo
[3] = system: Ehrlich ascites carcinoma; assay: Ehrlich ascites carcinoma growth in CF1 male mice; assay type: in vivo, mouse; conditions: for No. of Animals Survived on Day 10: 6 animals; for Ascrit Packed Cell Vol. / Vol(ml) Ascites Fluid: Day 10; for Percent Inhibition: Ehrlich ascites carcinoma growth
Description: (§1) CF1 male mice (~30 g) were implanted with 2×10^6 Ehrlich ascites tumor cells, intraperitoneally on Day 0. Compound I was suspended by homogenation in 0.05% polysorbate.80-water and administered intraperitoneally at 10 and 20 mg/kg for 9 days to determine its effectiveness for inhibition of tumor growth. Mice were sacrificed on Day 10, and the ascites fluid was collected from the peritoneal cavity. The volume and ascrit (packed cell volume) were determined for each animal and the percent inhibition of tumor growth was calculated. For the metabolic studies, mice were treated on Days 8 and 9 with 10 mg/kg of Compound I, intraperitoneally. The animal was sacrificed on Day 10 and the ascites fluid harvested. The in vitro metabolic studies were performed at […] final concentration of Compound I.

[4] = system: Ehrlich ascites cells; assay: Number of cells in ascites fluid; assay type: in vivo, mouse
Description: as §1

[5] = system: ribonucleic acid synthesis of Ehrlich ascites cells; assay: In vitro whole cell incorporation: ribonucleic acid synthesis; assay type: cell-based, mouse; conditions: preliminary, 60 min, read-out: ID50, ribonucleic acid synthesis
Description: as §1
In vitro incorporation of ^3 H-thymidine, ^3 H-uridine, or ^3 H-leucine was determined using 10^6 Ehrlich ascites cells, 1 μCi labeled precursor, minimum essential medium and varying final concentrations of drug from 0.25-1.0 mM. The tubes were incubated at 37° C. for 60 min and inactivated by trichloroacetic acid. The acid insoluble labeled deoxyribonucleic acid was collected on GF/F glass filter discs and ribonucleic acid and protein were precipitated on nitrocellulose filters by vacuum suction. Results are expressed as dpm of incorporated precursor per hour per 10^6 cells.

{Cu[(CH3)3 N.BH2 CO2 ]2.(CH3)3 N.BH2 COOH} [Compound I]
Cholesterol ([1]; rat serum Chylomicrons): 88 ± 6 Percent Control
Neutral Lipids ([1]; rat serum Chylomicrons): 67 ± 7 Percent Control
Phospholipids ([1]; rat serum Chylomicrons): 96 ± 6 Percent Control
Protein ([1]; rat serum Chylomicrons): 99 ± 7 Percent Control
Triglyceride ([1]; rat serum Chylomicrons): 58 ± 5 Percent Control
Cholesterol ([1]; rat serum HDL): 64 ± 5 Percent Control
Neutral Lipids ([1]; rat serum HDL): 72 ± 8 Percent Control
Phospholipids ([1]; rat serum HDL): 86 ± 7 Percent Control
Protein ([1]; rat serum HDL): 108 ± 8 Percent Control
Triglyceride ([1]; rat serum HDL): 31 ± 5 Percent Control
Cholesterol ([1]; rat serum LDL): 68 ± 6 Percent Control
Neutral Lipids ([1]; rat serum LDL): 78 ± 7 Percent Control
Phospholipids ([1]; rat serum LDL): 105 ± 6 Percent Control
Protein ([1]; rat serum LDL): 101 ± 6 Percent Control
Triglyceride ([1]; rat serum LDL): 70 ± 6 Percent Control
Cholesterol ([1]; rat serum VLDL): 32 ± 3 Percent Control
Neutral Lipids ([1]; rat serum VLDL): 62 ± 5 Percent Control
Phospholipids ([1]; rat serum VLDL): 100 ± 7 Percent Control
Protein ([1]; rat serum VLDL): 96 ± 7 Percent Control
Triglyceride ([1]; rat serum VLDL): 43 ± 4 Percent Control
Appetite of the animal [2]: reduced
No. of Animals Survived on Day 10 ([3]; 10 mg/kg/day i.p.): 5
Ascrit Packed Cell Vol. ([3]; 10 mg/kg/day i.p.): 18.5
Vol(ml) Ascites Fluid ([3]; 10 mg/kg/day i.p.): 0.04 mL
Percent Inhibition ([3]; 10 mg/kg/day i.p.): 99.7%
No. of Animals Survived on Day 10 ([3]; 20 mg/kg/day i.p.): 6
Ascrit Packed Cell Vol. ([3]; 20 mg/kg/day i.p.): 34.0
Vol(ml) Ascites Fluid ([3]; 20 mg/kg/day i.p.): 0.32 mL
Percent Inhibition ([3]; 20 mg/kg/day i.p.): 96.2%
number of cells in the ascites fluid ([4]; after drug administration for two days (control 226×10^6 /ml)): 1.02e+08 mL⁻¹
Number of cells × 10^6 /ml ascites fluid ([4]; in vivo, 10 mg/kg/day I.P. on Days 8 and 9): 45 ± 4 % Control
IC50 [5]: 1820 µM
